DBAASP
≈ marks a conversion by molar mass, not a printed value. One block for each compound: values may come before it.

Columns and labels:
Assay in all cases: ≥ marks a high value that may be exact or a test limit, other limits are often not marked, values filed in µg/mL are converted to µM
Bacillus subtilis = tested on: Bacillus subtilis
Escherichia coli = tested on: Escherichia coli
[1] = tested on: Candida albicans ATCC 90028
[2] = tested on: Staphylococcus aureus ATCC 29213
[3] = tested on: Pseudomonas aeruginosa ATCC 27853
[4] = tested on: Escherichia coli ATCC 25922
Staphylococcus aureus = tested on: Staphylococcus aureus
Candida albicans = tested on: Candida albicans
[5] = tested on: Staphylococcus aureus ATCC 25923

MIC (Bacillus subtilis): ≥ 35 µM | MIC (Escherichia coli): 70 µM (≈ 114 µg/mL)
Compound: CC[C@H](C)[C@H](N)C(=O)N[C@@H](CC(N)=O)C(=O)N[C@@H](Cc1c[nH]c2ccccc12)C(=O)N[C@@H](CC(C)C)C(=O)N[C@@H](CCCCN)C(=O)N[C@@H](CC(C)C)C(=O)NCC(=O)N[C@@H](CCCCN)C(=O)N[C@@H](CCCCN)C(=O)N[C@@H](CCSC)C(=O)N[C@@H](CCSC)C(=O)N[C@@H](CO)C(=O)N[C@@H](C)C(=O)N[C@H](C(N)=O)[C@@H](C)CC [INWLKLGKKMMSAI]

MIC (Bacillus subtilis): ≥ 87.5 µM | MIC (Escherichia coli): 100 µM (≈ 163 µg/mL)
Compound: CC[C@H](C)[C@H](N)C(=O)N[C@@H](CC(N)=O)C(=O)N[C@@H](Cc1c[nH]c2ccccc12)C(=O)N[C@@H](CO)C(=O)N[C@@H](CO)C(=O)N[C@H](C(=O)N[C@@H](Cc1ccccc1)C(=O)N[C@@H](CCC(=O)O)C(=O)N[C@@H](CO)C(=O)N[C@H](C(=O)N[C@@H](CCCCN)C(=O)N[C@@H](CC(N)=O)C(=O)N[C@@H](CC(C)C)C(=O)N[C@H](C(N)=O)C(C)C)C(C)C)[C@@H](C)CC [INWSSIFESVKNLV]

MIC [1]: 10 µM (≈ 15 µg/mL) | MIC [2]: 20 µM (≈ 30 µg/mL) | MIC [3]: 5 µM (≈ 7.5 µg/mL) | MIC [4]: 2.5 µM (≈ 3.75 µg/mL)
Compound: CC[C@H](C)[C@H](NC(=O)[C@H](CCCN=C(N)N)NC(=O)[C@@H](N)CCCCN)C(=O)N[C@@H](C)C(=O)N[C@@H](CCC(N)=O)C(=O)N[C@@H](CCCN=C(N)N)C(=O)N[C@H](C(=O)N[C@@H](CCCCN)C(=O)N[C@@H](C)C(=O)N[C@@H](Cc1ccccc1)C(=O)N[C@@H](CC(C)C)C(=O)N[C@@H](CCCN=C(N)N)C(=O)O)[C@@H](C)CC [KRIAQRIKAFLR]

Continued, compound first:

Compound: CC[C@H](C)[C@H](NC(=O)[C@H](CCCN=C(N)N)NC(=O)[C@@H](N)CCCCN)C(=O)N[C@H](C(=O)N[C@@H](CCC(N)=O)C(=O)N[C@@H](CCCN=C(N)N)C(=O)N[C@@H](CCCCN)C(=O)N[C@@H](CCCCN)C(=O)N[C@@H](CC(=O)O)C(=O)N[C@@H](CCCCN)C(=O)N[C@@H](CCCCN)C(=O)N[C@@H](CCCN=C(N)N)C(=O)O)C(C)C [KRIVQRKKDKKR]
MIC [1]: ≥ 40 µM | MIC [2]: 40 µM (≈ 63.3 µg/mL) | MIC [3]: 40 µM (≈ 63.3 µg/mL) | MIC [4]: 20 µM (≈ 31.7 µg/mL)

Compound: CC[C@H](C)[C@H](NC(=O)CNC(=O)[C@H](CCCCN)NC(=O)[C@@H](NC(=O)[C@H](CC(C)C)NC(=O)[C@H](CO)NC(=O)CNC(=O)[C@H](CC(C)C)NC(=O)CNC(=O)[C@H](C)NC(=O)[C@H](CCCCN)NC(=O)[C@H](CC(C)C)NC(=O)[C@@H](NC(=O)[C@H](CCC(=O)O)NC(=O)[C@H](CCCCN)NC(=O)[C@H](Cc1ccccc1)NC(=O)CN)C(C)C)C(C)C)C(=O)N1CCC[C@H]1C(=O)N[C@@H](C)C(=O)N[C@@H](Cc1cnc[nH]1)C(=O)N[C@H](C(=O)N[C@@H](C)C(=O)N[C@@H](CC(N)=O)C(N)=O)C(C)C [GFKEVLKAGLGSLVKGIPAHVAN]
MIC (Staphylococcus aureus): 434 µM (≈ 1000 µg/mL) | MIC (Candida albicans): > 400 µM | MIC (Escherichia coli): 217 µM (≈ 500 µg/mL)

Compound: CC(C)C[C@H](NC(=O)[C@H](C)NC(=O)[C@H](CCCCN)NC(=O)[C@H](C)NC(=O)[C@H](CC(C)C)NC(=O)[C@H](C)NC(=O)[C@H](CCCCN)NC(=O)[C@H](C)NC(=O)[C@H](C)NC(=O)[C@H](C)NC(=O)[C@H](CCCCN)NC(=O)[C@H](C)NC(=O)[C@@H](NC(=O)[C@H](C)NC(=O)[C@H](CCCCN)NC(=O)[C@H](C)NC(=O)[C@H](CC(C)C)NC(=O)[C@@H](N)Cc1ccccc1)C(C)C)C(=O)O [FLAKAVAKAAAKALAKAL]
MIC (Candida albicans): 82 µM (≈ 144 µg/mL)

Compound: CC[C@H](C)[C@H](NC(=O)[C@H](CCCCN)NC(=O)CNC(=O)[C@@H](NC(=O)[C@@H](NC(=O)[C@H](CO)NC(=O)CNC(=O)[C@H](C)NC(=O)[C@H](CCCCN)NC(=O)[C@H](CO)NC(=O)[C@H](C)NC(=O)[C@H](CCSC)NC(=O)CN)[C@@H](C)CC)C(C)C)C(=O)N[C@@H](C)C(=O)N[C@@H](CCCCN)C(=O)N[C@H](C(=O)N[C@@H](C)C(=O)N[C@@H](CC(C)C)C(=O)NCC(=O)N[C@@H](C)C(=O)N[C@@H](CC(C)C)C(N)=O)[C@@H](C)CC [GMASKAGSIVGKIAKIALGAL]
MIC [1]: 25 µM (≈ 48.9 µg/mL) | MIC [5]: 50 µM (≈ 97.8 µg/mL) | MIC [4]: 25 µM (≈ 48.9 µg/mL)
